Test results published in patent publication US6541509B2 (priority 2000, dated 2003).
Read-outs that look alike come from different tables or passages of the source.

Tests used:
SKOV3 = assay: cells; type: cell-based, human; settings: SKOV3, 6 days, mean ± SE; for IC50: read-out: IC50 (drug concentration that inhibits cell division by 50%)
Procedure: (§1) The drug-sensitive mouse macrophage-like cell line, J774.2, and its Taxol-resistant cell line, J7-T3-1.6, were maintained as previously described. […] Drug-sensitive and vinblastine-resistant human ovarian carcinoma cell lines, SKOV3 and SKVLB, were obtained from Dr. V. Ling, and were maintained as previously described. Both J7-T3-1.6 and SKVLB cells overexpress P-glycoprotein. SKVLB cells were grown in the presence of 1 μM vinblastine. The Taxol-resistant human non-small-cell lung carcinoma cell line, A549-T12, was derived from the drug-sensitive A549 cell line; both cell lines were maintained as previously described.
(§2) For the A549 cell lines, cells were seeded at a density of 1×10^4 cells/mL (A549) or 3×10^4 cells/mL (A549-T12), in triplicate, 6-well plates, and allowed to attach for 24 h. […] The SKOV3 and SKVLB cell lines were assayed in a similar manner. Cells were seeded in triplicate, at a density of 6×10^3 cells/mL (SKOV3) or 12×10^3 cells/mL (SKVLB), in 6-well plates, and incubated with a drug for 6 days. […] J774.2 and J7-T3-1.6 cells were plated at a density of 2×10^4 cells/well, in 96-well plates, and allowed to attach overnight. Serial dilutions of each drug were performed, and the cells were incubated for 72 h. The IC50 was determined using the CellTiter 96™ AQueous nonradioactive cell proliferation assay (Promega, Madison, Wis.), which correlates with the number of live cells. Different methods for determining IC50 values were used, depending on the most accurate method for each particular set of cell lines.

A549 = assay: cells; type: cell-based, human; settings: for IC50: read-out: IC50 (drug concentration that inhibits cell division by 50%)
Procedure: as §1, §2

SKVLB = assay: cells; type: cell-based, human; settings: for IC50: SKVLB, 6 days, mean ± SE, read-out: IC50 (drug concentration that inhibits cell division by 50%); for Fold resistance (ratio of IC50, SKVLB and SKOV3): after 6 days
Procedure: as §1, §2

A549-T12 = assay: cells; type: cell-based, human; settings: for IC50: read-out: IC50 (drug concentration that inhibits cell division by 50%)
Procedure: as §1, §2

microtubules = assay: In vitro microtubule polymerization assay; type: biochemical; settings: in the absence of GTP
A549-T12 cells [1] = type: cell-based, human; settings: for Cell-cycle profile: 48 h, 2 nM Taxol, discodermolide 2 or 6 nM, other drugs as in FIG. 5; for Reversal of the G2-M-phase block induced by Taxol removal: 48 h without Taxol, then 48 h with drug, discodermolide 0.001-24.0 nM, data not shown
Procedure: Cells were incubated with the different agents for 48 h, fixed, stained with propidium iodide, and analyzed by flow cytometry, as described below.
For the drug substitution experiments, A549-T12 cells were seeded at a density of 3×10^4 cells/mL in 75-cm^2 flasks, and treated with various drugs at the indicated concentrations (FIG. 5). After 48 h, both adherent and nonadherent cells were harvested, fixed in 70% ethanol for at least 20 min, permeabilized with 0.1% Triton X-100 in PBS for 3 min, and stained for 30 min at 37° C. with 10 μg/mL of propidium iodide (Sigma) in a PBS solution containing 1 μg/mL of RNase A (Boehringer Mannheim, Indianapolis, Ind.). Cell-cycle analysis was performed using the Becton Dickinson FACScan and the CellQuest program. […] The cells then were prepared as described above.

J774.2 = assay: cells; type: cell-based, mouse; settings: J774.2, 72 h, mean ± SE; for IC50: read-out: IC50 (drug concentration that inhibits cell division by 50%)
Procedure: as §1, §2

J7-T3-1.6 = assay: cells; type: cell-based, mouse; settings: for IC50: J7-T3-1.6, 72 h, mean ± SE, read-out: IC50 (drug concentration that inhibits cell division by 50%); for Fold resistance (ratio of IC50 J7-T3-1.6 to J774.2): after 72 h
Procedure: as §1, §2

A549-T12 cells [2] = type: cell-based, human; settings: 48 h; concentrations as in FIG. 4
Procedure: A549-T12 cells were grown on cover slips and treated with the different compounds for 48 h. Cells were then permeabilized, fixed, and incubated with an α-tubulin antibody, as described below.
A549-T12 cells, which were grown to subconfluency on glass cover slips in the absence of drug or in the presence of different drugs at varying concentrations (FIG. 4), were prepared for immunofluorescence microscopy as previously described, with the following modifications: (a) nonspecific binding was blocked using 10% normal goat serum in PBS for 30 min at 37° C.; (b) cells were incubated with a monoclonal antibody to α-tubulin (Sigma; 1:100 dilution; 5% normal goat serum in PBS), followed by a Cy3-conjugated anti-mouse IgG secondary antibody (Amersham, Arlington Heights, Ill.; 1:1000 dilution); and (c) slides were analyzed using the Zeiss Axioskop microscope (rhodamine filter) at 63× magnification.

A549 cells = assay: Methylene blue growth assay; type: cell-based, human; settings: 8 to 11 days
Procedure: (§3) FIG. 2 illustrates that A549-T12 cells require Taxol for normal growth. A549 and A549-T12 cells were grown in the absence or presence of various concentrations of Taxol for 8 to 11 days. The cells were then stained with methylene blue, as described below.
(§4) Cells were seeded in 24-well plates at a density of 400 cells/well (A549) or 500 cells/well (A549-T12), and treated with different concentrations of Taxol. Following 8 to 11 days of growth, the medium was removed, and cells were stained with 0.5% methylene blue (Sigma) in 50% ethanol for 20 min, then rinsed with distilled water (FIG. 2).

A549-T12 cells [3] = assay: Methylene blue growth assay; type: cell-based, human; settings: 8 to 11 days
Procedure: as §3, §4

[4] = Homo sapiens, Ovarian carcinoma cell, 144 h
[5] = A549-T12, 72 h, cells maintained in 2 nM Taxol, mean ± SE
[6] = Homo sapiens, A549, 72 h, mean ± SE
[7] = Homo sapiens, A549-T12, 72 h, cells maintained in 2 nM Taxol, mean ± SE

IC50 (SKOV3; Homo sapiens, SK-OV-3, 144 h)	IC50 (SKVLB; [4])	IC50 (J774.2; Mus musculus)	IC50 (J7-T3-1.6; Mus musculus)	Compound	IC50 (drug concentration that inhibits cell division by 50%) (SKOV3)	Fold resistance (ratio of IC50, SKVLB and SKOV3) (SKVLB)	Assembly of microtubules (microtubules)	Cell-cycle profile (A549-T12 cells [1])	Reversal of the G2-M-phase block induced by Taxol removal (A549-T12 cells [1])	IC50 (drug concentration that inhibits cell division by 50%) (J774.2)	Fold resistance (ratio of IC50 J7-T3-1.6 to J774.2) (J7-T3-1.6)	Microtubule cytoskeleton / ability to substitute for Taxol (A549-T12 cells [2])	IC50 (SKOV3)	IC50 (drug concentration that inhibits cell division by 50%) (A549; A549, 72 h, mean ± SE)	IC50 (A549; A549, 72 h, mean ± SE)	IC50 (SKVLB)	Fold resistance (ratio of IC50 A549-T12 to A549) (A549-T12; 72 h)	IC50 (A549-T12; [5])	IC50 (J774.2)	IC50 (J7-T3-1.6)	other results
–	–	–	–	C/C(=C\c1csc(C)n1)[C@@H]1C[C@@H]2O[C@@H]2CCC[C@H](C)[C@H](O)[C@@H](C)C(=O)C(C)(C)[C@@H](O)CC(=O)O1 [EpoA, epothilone A]	decreased but similar responses	18.5 fold	–	normal cell-cycle profile	return of a normal cell-cycle profile	–	16 fold	normal microtubule cytoskeleton	10.3 ± 4.5 nM	comparable activities	6.4 ± 2 nM	190 ± 14 nM	5.3 fold	34 ± 3.1 nM	10.6 ± 2 nM	170 ± 14 nM	Fold resistance (ratio of IC50, SKVLB and SKOV3) (SKVLB; listed as epothilone A): low-level cross-resistance; Fold resistance (ratio of IC50 A549-T12 to A549) (A549-T12; 72 h, listed as epothilone A): cross-resistance; Fold resistance (ratio of IC50 J7-T3-1.6 to J774.2) (J7-T3-1.6; listed as epothilone A): low resistance
–	–	–	–	C/C(=C\c1csc(C)n1)[C@@H]1C[C@@H]2O[C@]2(C)CCC[C@H](C)[C@H](O)[C@@H](C)C(=O)C(C)(C)[C@@H](O)CC(=O)O1 [EpoB, epothilone B]	highest sensitivity	19.0 fold	–	normal cell-cycle profile	return of a normal cell-cycle profile	most sensitive	30 fold	normal microtubule cytoskeleton	0.5 ± 0.09 nM	more potent	0.7 ± 0.1 nM	9.5 ± 2.1 nM	4.7 fold	3.3 ± 0.72 nM	0.4 ± 0.1 nM	12 ± 4 nM	Fold resistance (ratio of IC50, SKVLB and SKOV3) (SKVLB; listed as epothilone B): low-level cross-resistance; Fold resistance (ratio of IC50 A549-T12 to A549) (A549-T12; 72 h, listed as epothilone B): cross-resistance; Fold resistance (ratio of IC50 J7-T3-1.6 to J774.2) (J7-T3-1.6; listed as epothilone B): low resistance
2 ± 0.1 nM	13300 nM	67 ± 7 nM	18000 nM	CC(=O)O[C@H]1C(=O)[C@@]2(C)[C@H]([C@H](OC(=O)c3ccccc3)[C@]3(O)C[C@H](OC(=O)[C@H](O)[C@@H](NC(=O)c4ccccc4)c4ccccc4)C(C)=C1C3(C)C)[C@]1(OC(C)=O)CO[C@@H]1C[C@@H]2O [Taxol, paclitaxel]	decreased but similar responses	6,666.5 fold	enhanced the assembly of stable microtubules	normal cell-cycle profile	return of a normal cell-cycle profile	–	268.7 fold	normal microtubule cytoskeleton	–	–	–	–	–	–	–	–	IC50 (A549; [6]): 2 ± 0.14 nM; IC50 (A549-T12; [7]): 18.7 ± 0.9 nM; Cell growth (A549 cells; 6 nM Taxol): cytotoxic; Cell growth (A549 cells; subnanomolar concentrations of Taxol): unaffected; Cell growth (A549-T12 cells [3]; 6 nM Taxol): grew normally; Taxol level required by the cell line for normal growth (A549-T12 cells [3]): 2 to 6 nM
1.1 ± 0.1 nM	1880 nM	6 ± 2.7 nM	767 ± 351 nM	CC[C@]1(O)C[C@@H]2CN(CCc3c([nH]c4ccccc34)[C@@](C(=O)OC)(c3cc4c(cc3OC)N(C)[C@H]3[C@@](O)(C(=O)OC)[C@H](OC(C)=O)[C@]5(CC)C=CCN6CC[C@]43[C@@H]65)C2)C1 [VBL, vinblastine]	highest sensitivity	1,709.4 fold	–	mitotic block	irreversible	–	127.8 fold	Neither discodermolide nor vinblastine was able to substitute for Taxol	–	–	–	–	1.0 fold	–	–	–	IC50 (A549; [6]): 1.8 nM; Fold resistance (ratio of IC50 A549-T12 to A549) (A549-T12; 72 h, listed as vinblastine): no cross-resistance; IC50 (A549-T12; [7]): 1.8 ± 0.18 nM; Fold resistance (ratio of IC50 J7-T3-1.6 to J774.2) (J7-T3-1.6; listed as vinblastine): significant cross-resistance

Compound	IC50 (SKOV3; Homo sapiens, SK-OV-3, 144 h)	IC50 (SKVLB; [4])	IC50 (J774.2; Mus musculus)	IC50 (J7-T3-1.6; Mus musculus)	IC50 (drug concentration that inhibits cell division by 50%) (SKOV3)	Fold resistance (ratio of IC50, SKVLB and SKOV3) (SKVLB)	Assembly of microtubules (microtubules)	Cell-cycle profile (A549-T12 cells [1])	Reversal of the G2-M-phase block induced by Taxol removal (A549-T12 cells [1])	IC50 (drug concentration that inhibits cell division by 50%) (J774.2)	Fold resistance (ratio of IC50 J7-T3-1.6 to J774.2) (J7-T3-1.6)	Microtubule cytoskeleton / ability to substitute for Taxol (A549-T12 cells [2])	IC50 (SKOV3)	IC50 (drug concentration that inhibits cell division by 50%) (A549; A549, 72 h, mean ± SE)	IC50 (A549; A549, 72 h, mean ± SE)	IC50 (SKVLB)	Fold resistance (ratio of IC50 A549-T12 to A549) (A549-T12; 72 h)	IC50 (A549-T12; [5])	IC50 (J774.2)	IC50 (J7-T3-1.6)	other results
CO[C@]12C=C[C@](C)(O1)[C@@H](OC(=O)/C=C/c1cn(C)cn1)C[C@H]1C(C)=CC[C@H](C(C)C)[C@H]1/C=C\2CO[C@@H]1OC[C@@H](O)[C@@H](O)[C@@H]1OC(C)=O [Eleu, eleutherobin]	8.2 ± 3.8 nM	> 5000 nM	394 ± 5.8 nM	> 5000 nM	decreased but similar responses	>609.8 fold	enhanced the assembly of stable microtubules	normal cell-cycle profile	return of a normal cell-cycle profile	quite insensitive	>12.7 fold	normal microtubule cytoskeleton	–	–	–	–	–	–	–	–	IC50 (drug concentration that inhibits cell division by 50%) (A549): comparable activities; IC50 (A549; Homo sapiens, A549, 72 h): 14 ± 2.8 nM; Fold resistance (ratio of IC50, SKVLB and SKOV3) (SKVLB; listed as eleutherobin): definite cross-resistance; IC50 (A549-T12; Homo sapiens, 72 h): 69 ± 11.3 nM
